Target: T1, β-glucuronidase (GUS) (Escherichia coli, UniProt P05804)
T1 construct: gene uidA; purified GUS encoded by E. coli (G8420-25KU, Sigma-Aldrich)
Test: colorimetric PNPG hydrolysis (p-nitrophenol release) with purified enzyme; complete inhibition at […]
Assay type: biochemical

T1 sequence (P05804 whole entry): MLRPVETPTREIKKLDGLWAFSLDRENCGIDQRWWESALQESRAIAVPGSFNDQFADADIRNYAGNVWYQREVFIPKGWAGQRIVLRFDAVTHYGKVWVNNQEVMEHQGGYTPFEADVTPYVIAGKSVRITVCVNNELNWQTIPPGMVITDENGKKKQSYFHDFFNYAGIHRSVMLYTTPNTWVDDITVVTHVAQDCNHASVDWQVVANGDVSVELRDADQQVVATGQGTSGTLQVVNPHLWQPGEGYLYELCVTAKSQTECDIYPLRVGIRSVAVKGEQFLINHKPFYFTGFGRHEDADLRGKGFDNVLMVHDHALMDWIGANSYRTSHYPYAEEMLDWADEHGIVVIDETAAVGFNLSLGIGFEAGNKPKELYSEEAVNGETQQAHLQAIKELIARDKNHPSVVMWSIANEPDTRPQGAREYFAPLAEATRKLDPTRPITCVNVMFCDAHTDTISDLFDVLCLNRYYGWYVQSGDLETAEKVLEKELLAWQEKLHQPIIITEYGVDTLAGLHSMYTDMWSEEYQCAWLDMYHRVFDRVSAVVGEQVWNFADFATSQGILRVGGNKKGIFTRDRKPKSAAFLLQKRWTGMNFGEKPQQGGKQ

Clc1ccc2c(c1)C(N1CCNCC1)=Nc1ccccc1O2 [amoxapine]
colorimetric PNPG hydrolysis (p-nitrophenol release) with purified enzyme; compl: 50 µM
